The values that follow come from article PMC12281424, “A Rac-specific competitive inhibitor of guanine nucleotide binding reduces metastasis in triple-negative breast cancer” (Cell Reports Medicine, 2025).

For one assay, the target named is Tec(h) activated (Homo sapiens, UniProt P42680). The experiment in a line: Kinase Profiler. Format: biochemical.
For the next assay, the target named is Endothelin ETA (Homo sapiens, UniProt P25101). The experiment in a line: Safety screen. The format is binding.
Another assay deals with ACTR2(h) (Homo sapiens, UniProt P27037). The experiment in a line: Kinase Profiler. The format is biochemical.
The next assay addresses JAK3(h) (Homo sapiens, UniProt P52333). The experiment in a line: Kinase Profiler. The format is biochemical.
The target in assay [1] is Transporter, Dopamine (DAT) (Homo sapiens, UniProt Q01959). The experiment in a line: Safety screen. Format: binding.
Procedure: (§1) Blood cell counts, kinase profiler, safety screen, bacterial cytotoxicity, Ames, micronucleus assays were performed by the company Eurofins (France).
For assay [2], the system named is RAC1-dependent membrane ruffle formation in NIH 3T3 cells. The experiment in a line: EGF-induced membrane ruffle formation. The format is cell-based. Particulars: EGF 10 ng/mL, inhibitors added 1 h prior; read-out: IC50, inhibition of ruffles formation. As for the experimental part:
Figure 2 Identification of a new RAC1 inhibitor (A) Effect of A41 and NSC23766 on ruffle formation (white arrows) induced by EGF (10 ng/mL) in NIH 3T3 cells in serum-free culture medium (CTL). Inhibitors were added at indicated concentration 1 h prior to EGF stimulation. To assess cytoskeleton organization, cells were incubated with Alexa Fluor 488 phalloidin to visualize F-actin. Results shown are representative of 3 independent experiments. Corresponding concentration-response curves have been established by counting the percentages of cells with ruffles (scale bars: 10 μm). (B) Immunoblot analysis and associated quantification of RAC-GTP level and total RAC expression in NIH 3T3 cells stimulated by EGF (10 ng/mL, 5 min) and pre-incubated or not (−) with NSC23766, A41, or A415 at 10^−5 M for 1 h (∗∗∗p < 0.001 vs. controls without EGF stimulation, ^###p < 0.001 vs. controls with EGF stimulation) (N > 3). […] (D) Representative in vitro nucleotide exchange catalyzed by the DH-PH of TIAM (10 nM) measured by the binding of fluorescent mant-GTP (1 μM) to RAC1 (0.5 μM, preloaded with GDP) in the presence of indicated concentrations of A41 (out of N = 6). […] (E) Kobs and Kmax were determined in each condition (N = 6). […]
After indicated treatments, cells were fixed with 4% paraformaldehyde and permeabilized in PBS 0.5% Triton X-100. […] Cancer cells were detected with firefly luciferase antibody (ab21176, Abcam) (dilution 1/500) overnight at room temperature, followed by secondary Alexa 488-labeled anti-rabbit antibody (dilution 1/1000). […] After staining, cells were mounted in Prolong gold antifade reagent with DAPI and images were captured by a fluorescence microscope. […]
Supp. […] For each molecule, druglikeness has been assessed according to Lipinski’s rules: molecular weight (MW)<500; high lipophilicity (LogP<5); less than 5 hydrogen bond donors (HBD); less than 10 hydrogen bond acceptors (HBA). The log P was calculated by using OSIRIS – Data Warrior software. […] IC50 was determined experimentally from the inhibition

A further assay addresses LKB1(h) (Homo sapiens, UniProt Q15831). The experiment in a line: Kinase Profiler. The format is biochemical.
Another assay addresses PhKγ2(h) (Homo sapiens, UniProt P15735). The experiment in a line: Kinase Profiler. The format is biochemical.
A further assay has as its target ALK2(h) (Homo sapiens, UniProt Q04771). The experiment in a line: Kinase Profiler. Format: biochemical.
The target of another assay is TSSK4(h) (Homo sapiens, UniProt Q6SA08). The experiment in a line: Kinase Profiler. Format: biochemical.
For another assay, the target named is SAPK2a(T106M)(h) (Homo sapiens, UniProt Q16539, T106M). The experiment in a line: Kinase Profiler. Format: biochemical.
Another assay has as its target ULK3(h) (Homo sapiens, UniProt Q6PHR2). The experiment in a line: Kinase Profiler. The format is biochemical.
In a further assay the target is GABAB1A (Homo sapiens, UniProt Q9UBS5). The experiment in a line: Safety screen. Format: binding.
The next assay concerns the target STK25(h) (Homo sapiens, UniProt O00506). The experiment in a line: Kinase Profiler. Format: biochemical.
The next assay has as its target STK16(h) (Homo sapiens, UniProt O75716). The experiment in a line: Kinase Profiler. Format: biochemical.
The target of the next assay is PKG1β(h) (Homo sapiens, UniProt Q13976). The experiment in a line: Kinase Profiler. The format is biochemical.
Another assay deals with HIPK3(h) (Homo sapiens, UniProt Q9H422). The experiment in a line: Kinase Profiler. The format is biochemical.
A further assay concerns the target Lyn(h) (Homo sapiens, UniProt P07948). The experiment in a line: Kinase Profiler. Format: biochemical.

STK16(h), sequence (O75716 whole entry): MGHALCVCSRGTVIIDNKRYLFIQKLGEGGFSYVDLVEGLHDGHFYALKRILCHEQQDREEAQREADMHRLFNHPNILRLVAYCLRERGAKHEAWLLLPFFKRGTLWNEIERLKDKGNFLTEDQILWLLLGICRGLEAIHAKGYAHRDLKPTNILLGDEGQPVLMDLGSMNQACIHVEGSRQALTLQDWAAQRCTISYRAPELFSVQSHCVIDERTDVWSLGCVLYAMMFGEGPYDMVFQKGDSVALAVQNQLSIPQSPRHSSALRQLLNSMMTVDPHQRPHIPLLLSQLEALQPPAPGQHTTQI
Lyn(h), sequence (P07948 whole entry): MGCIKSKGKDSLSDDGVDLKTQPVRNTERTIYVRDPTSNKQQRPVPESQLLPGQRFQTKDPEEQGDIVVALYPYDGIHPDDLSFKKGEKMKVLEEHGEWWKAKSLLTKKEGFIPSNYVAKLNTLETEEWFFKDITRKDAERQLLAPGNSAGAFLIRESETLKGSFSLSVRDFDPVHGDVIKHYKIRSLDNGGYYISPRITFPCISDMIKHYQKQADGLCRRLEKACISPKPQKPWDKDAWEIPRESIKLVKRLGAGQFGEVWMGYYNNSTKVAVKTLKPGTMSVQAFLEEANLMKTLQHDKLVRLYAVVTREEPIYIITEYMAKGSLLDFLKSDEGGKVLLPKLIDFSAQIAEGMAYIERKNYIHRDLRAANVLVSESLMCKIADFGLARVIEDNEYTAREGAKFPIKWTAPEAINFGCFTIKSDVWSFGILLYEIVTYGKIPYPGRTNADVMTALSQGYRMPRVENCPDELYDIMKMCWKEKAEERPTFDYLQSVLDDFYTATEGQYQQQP
HIPK3(h), sequence (Q9H422 whole entry): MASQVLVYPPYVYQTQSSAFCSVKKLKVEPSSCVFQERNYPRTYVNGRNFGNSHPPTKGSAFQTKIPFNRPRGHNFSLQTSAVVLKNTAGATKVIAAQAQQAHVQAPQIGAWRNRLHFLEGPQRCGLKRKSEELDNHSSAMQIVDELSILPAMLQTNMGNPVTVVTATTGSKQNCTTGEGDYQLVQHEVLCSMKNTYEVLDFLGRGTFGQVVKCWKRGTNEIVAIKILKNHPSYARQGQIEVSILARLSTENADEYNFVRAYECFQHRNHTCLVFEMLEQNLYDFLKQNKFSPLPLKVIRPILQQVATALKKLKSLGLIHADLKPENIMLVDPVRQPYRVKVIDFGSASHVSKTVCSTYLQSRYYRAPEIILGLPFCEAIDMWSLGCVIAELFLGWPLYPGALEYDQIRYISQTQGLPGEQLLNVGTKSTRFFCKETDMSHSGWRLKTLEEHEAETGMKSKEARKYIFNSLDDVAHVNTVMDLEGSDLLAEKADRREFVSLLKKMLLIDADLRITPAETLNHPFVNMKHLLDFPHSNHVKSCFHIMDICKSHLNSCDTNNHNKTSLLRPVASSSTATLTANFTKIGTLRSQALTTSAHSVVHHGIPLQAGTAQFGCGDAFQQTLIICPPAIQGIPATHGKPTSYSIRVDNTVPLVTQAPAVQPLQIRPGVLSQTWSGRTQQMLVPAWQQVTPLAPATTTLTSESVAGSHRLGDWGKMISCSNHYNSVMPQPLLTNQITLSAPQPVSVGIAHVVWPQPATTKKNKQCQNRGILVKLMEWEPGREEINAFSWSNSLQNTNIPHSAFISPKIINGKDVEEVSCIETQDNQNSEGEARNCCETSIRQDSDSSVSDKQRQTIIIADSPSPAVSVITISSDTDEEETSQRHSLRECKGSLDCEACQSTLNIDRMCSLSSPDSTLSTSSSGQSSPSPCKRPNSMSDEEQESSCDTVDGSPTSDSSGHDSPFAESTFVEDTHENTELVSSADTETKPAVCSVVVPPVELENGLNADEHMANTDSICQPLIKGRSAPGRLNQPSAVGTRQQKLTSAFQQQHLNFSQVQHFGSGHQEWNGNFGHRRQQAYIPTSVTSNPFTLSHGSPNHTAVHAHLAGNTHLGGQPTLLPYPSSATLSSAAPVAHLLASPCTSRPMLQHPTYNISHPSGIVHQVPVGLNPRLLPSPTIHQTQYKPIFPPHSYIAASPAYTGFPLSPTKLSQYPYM
ULK3(h), sequence (Q6PHR2 whole entry): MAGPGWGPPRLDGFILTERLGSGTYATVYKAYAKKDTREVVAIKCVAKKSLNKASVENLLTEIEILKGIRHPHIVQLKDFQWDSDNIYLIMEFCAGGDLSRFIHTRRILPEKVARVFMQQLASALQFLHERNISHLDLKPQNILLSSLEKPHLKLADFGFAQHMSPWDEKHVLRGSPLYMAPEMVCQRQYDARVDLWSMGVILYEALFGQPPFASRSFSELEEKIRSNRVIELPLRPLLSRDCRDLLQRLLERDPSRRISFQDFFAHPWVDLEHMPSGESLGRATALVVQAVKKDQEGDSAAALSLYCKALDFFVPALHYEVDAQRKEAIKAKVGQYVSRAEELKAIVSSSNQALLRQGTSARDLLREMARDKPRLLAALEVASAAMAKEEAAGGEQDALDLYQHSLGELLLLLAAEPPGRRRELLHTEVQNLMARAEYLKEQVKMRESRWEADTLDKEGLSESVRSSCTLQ
Transporter, Dopamine (DAT), sequence (Q01959 whole entry): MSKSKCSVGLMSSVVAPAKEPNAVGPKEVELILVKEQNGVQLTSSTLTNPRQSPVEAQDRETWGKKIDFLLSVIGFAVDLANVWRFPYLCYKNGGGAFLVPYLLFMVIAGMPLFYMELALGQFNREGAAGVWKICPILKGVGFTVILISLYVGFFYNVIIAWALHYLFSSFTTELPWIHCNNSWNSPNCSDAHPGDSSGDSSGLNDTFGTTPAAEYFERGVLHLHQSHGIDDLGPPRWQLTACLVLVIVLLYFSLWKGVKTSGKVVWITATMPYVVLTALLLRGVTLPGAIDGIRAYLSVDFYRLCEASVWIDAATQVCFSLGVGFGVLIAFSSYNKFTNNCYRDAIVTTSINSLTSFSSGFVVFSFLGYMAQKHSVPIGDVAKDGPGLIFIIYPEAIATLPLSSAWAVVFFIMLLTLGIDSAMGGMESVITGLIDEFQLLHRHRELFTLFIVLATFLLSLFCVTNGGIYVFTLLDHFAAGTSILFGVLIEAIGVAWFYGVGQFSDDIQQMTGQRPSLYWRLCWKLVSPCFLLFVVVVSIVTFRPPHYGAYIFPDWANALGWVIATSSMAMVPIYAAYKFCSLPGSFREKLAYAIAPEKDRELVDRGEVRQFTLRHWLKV
GABAB1A, sequence (Q9UBS5 15-961 limits assumed): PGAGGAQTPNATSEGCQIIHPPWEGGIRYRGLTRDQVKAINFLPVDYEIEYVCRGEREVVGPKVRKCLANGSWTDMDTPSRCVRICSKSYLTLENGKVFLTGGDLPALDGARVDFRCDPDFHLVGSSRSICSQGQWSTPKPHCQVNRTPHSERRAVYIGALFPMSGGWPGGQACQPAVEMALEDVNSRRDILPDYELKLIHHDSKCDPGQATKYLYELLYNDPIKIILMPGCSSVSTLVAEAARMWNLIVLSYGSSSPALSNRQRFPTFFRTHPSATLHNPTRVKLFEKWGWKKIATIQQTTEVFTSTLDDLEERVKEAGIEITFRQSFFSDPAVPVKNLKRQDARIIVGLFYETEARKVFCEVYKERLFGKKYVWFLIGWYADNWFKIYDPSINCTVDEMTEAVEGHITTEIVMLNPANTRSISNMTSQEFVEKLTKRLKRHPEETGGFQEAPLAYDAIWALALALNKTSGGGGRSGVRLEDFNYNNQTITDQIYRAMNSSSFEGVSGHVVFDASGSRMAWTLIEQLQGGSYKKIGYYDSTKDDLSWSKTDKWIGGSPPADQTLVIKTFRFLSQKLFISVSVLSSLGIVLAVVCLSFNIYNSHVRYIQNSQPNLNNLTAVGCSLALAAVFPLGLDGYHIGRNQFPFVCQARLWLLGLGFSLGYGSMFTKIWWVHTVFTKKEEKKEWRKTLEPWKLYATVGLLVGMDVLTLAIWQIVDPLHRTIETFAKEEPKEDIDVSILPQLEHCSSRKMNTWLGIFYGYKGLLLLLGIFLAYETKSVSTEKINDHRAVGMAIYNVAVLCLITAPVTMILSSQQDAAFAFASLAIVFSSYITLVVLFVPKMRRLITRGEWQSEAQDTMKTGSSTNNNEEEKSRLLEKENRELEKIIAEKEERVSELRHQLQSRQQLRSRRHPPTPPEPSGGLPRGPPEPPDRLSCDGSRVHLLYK
TSSK4(h), sequence (Q6SA08 whole entry): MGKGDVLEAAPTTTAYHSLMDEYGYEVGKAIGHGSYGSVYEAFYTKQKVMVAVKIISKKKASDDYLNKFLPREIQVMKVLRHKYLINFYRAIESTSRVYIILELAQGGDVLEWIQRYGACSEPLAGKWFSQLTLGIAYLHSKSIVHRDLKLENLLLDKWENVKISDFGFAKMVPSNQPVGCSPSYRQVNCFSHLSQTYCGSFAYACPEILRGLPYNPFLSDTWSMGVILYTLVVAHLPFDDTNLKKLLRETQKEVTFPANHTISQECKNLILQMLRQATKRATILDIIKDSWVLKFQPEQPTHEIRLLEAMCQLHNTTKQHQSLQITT
PhKγ2(h), sequence (P15735 whole entry): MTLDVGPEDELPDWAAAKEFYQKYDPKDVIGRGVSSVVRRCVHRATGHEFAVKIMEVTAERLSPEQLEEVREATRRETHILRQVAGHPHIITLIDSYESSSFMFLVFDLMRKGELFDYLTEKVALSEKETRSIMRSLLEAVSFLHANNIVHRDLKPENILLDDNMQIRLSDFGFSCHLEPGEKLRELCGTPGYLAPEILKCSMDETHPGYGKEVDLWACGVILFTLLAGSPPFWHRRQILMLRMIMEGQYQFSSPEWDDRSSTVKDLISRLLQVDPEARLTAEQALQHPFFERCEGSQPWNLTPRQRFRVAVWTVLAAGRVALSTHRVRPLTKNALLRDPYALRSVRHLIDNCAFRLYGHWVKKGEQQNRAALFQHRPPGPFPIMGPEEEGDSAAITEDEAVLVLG
Procedure for ACTR2(h): (§2) The kinase profiler was performed by the company Eurofins (Discovery, Panlab and Cerep).
Procedure for ALK2(h): as §2
Procedure for Endothelin ETA: as §1
Procedure for GABAB1A: as §1
Procedure for HIPK3(h): as §2
Procedure for JAK3(h): as §2
Procedure for LKB1(h): as §2
Procedure for Lyn(h): as §2
Procedure for PKG1β(h): as §2
Procedure for PhKγ2(h): (§3) Blood cell counts, kinase profiler, safety screen, bacterial cytotoxicity, Ames, micronucleus assays were performed by the company Eurofins (France). The kinase profiler was performed by the company Eurofins (Discovery, Panlab and Cerep).
Procedure for SAPK2a(T106M)(h): as §2
Procedure for STK16(h): as §2
Procedure for STK25(h): as §2
Procedure for TSSK4(h): as §2
Procedure for Tec(h) activated: as §3
Procedure for ULK3(h): as §3

In the case of `COc1ccc(OC)c(NS(=O)(=O)c2ccc(NC(=O)CCSc3ccc(C)cc3)cc2)c1` [Compound A41], the “Activity(%)” value came out at 112% at Tec(h) activated; 108% on ACTR2(h); 106% on JAK3(h); 107% on LKB1(h); 98% on PhKγ2(h); 100% at ALK2(h). In addition, the “Activity(%)” value at TSSK4(h) came out at 103%; at SAPK2a(T106M)(h) it was 98%; on ULK3(h) it was 97%; on STK25(h) it was 98%; on STK16(h), 115%; on PKG1β(h), 105%. The “Activity(%)” value was 95% at HIPK3(h) and 109% at Lyn(h). The “% inh.” value at Endothelin ETA was -8%; in assay [1], 30%; at GABAB1A, -6%. Besides, the IC50 (as a rule, the concentration needed to halve the response being measured) in assay [2] came out at 2.5 nM.
